Data taken from US5030760A, “Tetrahydrophthalimides, and their production and use” (Sumitomo Chemical Company, Ltd., priority 1981, dated 1991).

Assays:
Johnsongrass = experiment: Test Example 4, pre-emergence treatment, herbicidal activity; format: in vivo, Sorghum halepense; conditions: 20 days; further: ranges in brackets are in %
In short: (§1)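 Seeds were sown in upland field soil and the compound was sprayed pre-emergence as an emulsifiable concentrate dispersed in water with spreading agent, at 5 liters per are. Plants were grown 20 days in a greenhouse. Ratings came from aerial fresh weight as a percentage of untreated plants.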

velvetleaf [1] = experiment: as above; format: in vivo, Abutilon theophrasti; conditions: 20 days
In short: as §1

corn [2] = experiment: Test Example 1, foliar treatment, phytotoxicity to corn; format: in vivo; conditions: 3 weeks; further: ranges in brackets are in %
In short: (§2)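 Crops and weeds sown in upland soil, greenhouse-grown 2 weeks, then sprayed on foliage with compound as emulsifiable concentrate in water plus spreading agent at 5 liters per are. Scored 3 weeks later from aerial fresh weight as percent of untreated plants, converted to a rating scale.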

morningglory = experiment: Test Example 4, pre-emergence treatment, herbicidal activity; format: in vivo; conditions: 20 days; further: ranges in brackets are in %
In short: as §1

wild oat = experiment: Test Example 1, foliar treatment, herbicidal activity; format: in vivo, Avena fatua; conditions: 3 weeks; further: ranges in brackets are in %
In short: as §2

barnyardgrass [3] = experiment: Test Example 6, paddy pot perfusion, herbicidal activity; format: in vivo, Echinochloa crus-galli; conditions: 3 weeks, dry weight; further: ranges in brackets are in %
Procedure: (§3) The application of the tetrahydrophthalimides (I) as herbicides will be illustratively shown in the following Examples wherein the phytotoxicity to cultivated plants and the herbicidal activity on weeds were evaluated as follows: the aerial parts of the test plants were cut off and weighed (fresh weight); the percentage of the fresh weight of the treated plant to that of the untreated plant was calculated with the latter fresh weight taken as 100; and the crop damage and the herbicidal activity were evaluated by the standard given in the table below. The rating values of phytotoxicity, 0 and 1, and those of herbicidal effect, 5 and 4, are generally regarded as satisfactory to protect cultivated plants and control weeds, respectively. The rating values in the paddy field test alone were calculated from the dry weight of the test plants.
(§4) Wagner's pots (1/5000 are) were filled with paddy field soil containing the seeds of broad-leaved weeds (e.g. monochoria, false pimpernel, toothcup) and the seeds of barnyardgrass and hardstem bulrush, and water was poured therein until the depth of water became 4 cm. Rice seedlings of the 3.5-leaf stage and the tubers of arrowhead were transplanted therein and grown for 2 days in a greenhouse. A designed amount of the test compound formulated in an emulsifiable concentrate according to Preparation Example 2 was applied to the pots by perfusion. Thereafter, the test plants were grown for an additional 3 weeks in the greenhouse, and herbicidal activity and phytotoxicity were examined. In this treatment, the emulsifiable concentrate was dispersed in water for application at a perfusion volume of 10 liters per are.

rice plant = experiment: Test Example 6, paddy pot perfusion, phytotoxicity to rice plant; format: in vivo; conditions: 3 weeks, dry weight; further: ranges in brackets are in %
Procedure: as §3, §4

sicklepod = experiment: Test Example 3, soil surface spraying, herbicidal activity; format: in vivo, Cassia obtusifolia; conditions: 20 days; further: ranges in brackets are in %
Procedure: as §3
(§5) Plastic trays (35 cm×25 cm×15 cm) were filled with upland field soil, and the seeds of tall morningglory, velvetleaf and sicklepod and the seeds of corn were sown therein. A designed amount of the test compounds formulated into a wettable powder according to Preparation Example 1 was dispersed in water and applied by spraying at a spray volume of 5 liters per are to the whole surface of the soil. After the spraying, the test plants were placed in a greenhouse and grown for 20 days, and herbicidal activity and phytotoxicity were examined.

hardstem bulrush = experiment: Test Example 6, paddy pot perfusion, herbicidal activity; format: in vivo, Scirpus juncoides; conditions: 3 weeks, dry weight; further: ranges in brackets are in %
Procedure: as §3, §4

barnyardgrass [4] = experiment: Test Example 1, foliar treatment, herbicidal activity; format: in vivo, Echinochloa crus-galli; conditions: 3 weeks; further: ranges in brackets are in %
In short: as §2

corn [5] = experiment: Test Example 2, field foliar treatment, phytotoxicity to corn; format: in vivo; conditions: 3 weeks; further: ranges in brackets are in %
Procedure: as §3
(§6) Seeds of corn and broad-leaved weeds such as cocklebur, common purslane and tall morningglory were sown in the field as previously laid up in ridges, each ridge having an upper width of 1 m. At the time when the corn grew up to the 6-leaf stage and the broad-leaved weeds up to 2 to 5-leaf stages, a designed amount of the test compound formulated into an emulsifiable concentrate according to Preparation Example 2 and dispersed in water was sprayed to the foliage of the test plants with three replications over the top by means of a small hand sprayer at a spray volume of 5 liters per are. After cultivation for 3 weeks, herbicidal activity and phytotoxicity were examined.

jimsonweed = experiment: Test Example 5, spraying over the top, herbicidal activity; format: in vivo, Datura stramonium; conditions: sprayed over the top, 20 days; further: ranges in brackets are in %
Procedure: as §3
(§7) Plastic trays (35 cm×25 cm×15 cm) were filled with upland field soil, and the seeds of tall morningglory, velvetleaf, jimsonweed, sicklepod, hemp sesbania, prickly side, Johnsongrass, green foxtail and large crabgrass and the seeds of soybean were sown therein. A designed amount of the test compound formulated into a wettable powder according to Preparation Example 1 and dispersed in water was sprayed over the top by means of a small hand sprayer at a spray volume of 5 liters per are. After the spraying, the test plants were grown in greenhouse for 20 days, and phytotoxicity and herbicidal activity were examined.

velvetleaf [6] = experiment: Test Example 3, soil surface spraying, herbicidal activity; format: in vivo, Abutilon theophrasti; conditions: 20 days; further: ranges in brackets are in %
Procedure: as §3, §5

wild mustard = experiment: Test Example 1, foliar treatment, herbicidal activity; format: in vivo, Brassica kaber; conditions: 3 weeks
In short: as §2

common purslane = experiment: Test Example 2, field foliar treatment, herbicidal activity; format: in vivo, Portulaca oleracea; conditions: 3 weeks; further: ranges in brackets are in %
Procedure: as §3, §6

green foxtail [7] = experiment: Test Example 4, pre-emergence treatment, herbicidal activity; format: in vivo, Setaria viridis; conditions: 20 days; further: ranges in brackets are in %
In short: as §1

large crabgrass = experiment: Test Example 5, spraying over the top, herbicidal activity; format: in vivo, Digitaria sanguinalis; conditions: sprayed over the top, 20 days; further: ranges in brackets are in %
Procedure: as §3, §7

corn [8] = experiment: Test Example 4, pre-emergence treatment, phytotoxicity to corn; format: in vivo; conditions: 20 days; further: ranges in brackets are in %
In short: as §1

green foxtail [9] = experiment: Test Example 5, spraying over the top, herbicidal activity; format: in vivo, Setaria viridis; conditions: sprayed over the top, 20 days; further: ranges in brackets are in %
Procedure: as §3, §7

velvetleaf [10] = experiment: Test Example 1, foliar treatment, herbicidal activity; format: in vivo, Abutilon theophrasti; conditions: 3 weeks; further: ranges in brackets are in %
In short: as §2
Wherever Herbicidal activity, Velvetleaf is given: ranges in brackets are in %.

SMILES	Phytotoxicity, Corn (corn [2]; 1.25 g/are)	Phytotoxicity, Corn (corn [2]; 5 g/are)	Herbicidal activity, Wild cat (wild oat; 1.25 g/are)	Herbicidal activity, Wild cat (wild oat; 5 g/are)	Herbicidal activity, Barnyardgrass (barnyardgrass [3]; 1.25 g/are)	Herbicidal activity, Barnyardgrass (barnyardgrass [3]; 2.5 g/are)	Phytotoxicity, Rice plant (rice plant; 1.25 g/are)	Phytotoxicity, Rice plant (rice plant; 2.5 g/are)	Herbicidal activity, Sicklepod (sicklepod; 5 g/are)	Herbicidal activity, Sicklepod (sicklepod; 10 g/are)	Herbicidal activity, Hardstem bulrush (hardstem bulrush; 1.25 g/are)	Herbicidal activity, Hardstem bulrush (hardstem bulrush; 2.5 g/are)	Herbicidal activity, Barnyardgrass (barnyardgrass [4]; 1.25 g/are)	Herbicidal activity, Barnyardgrass (barnyardgrass [4]; 5 g/are)	Phytotoxicity, Corn (corn [5]; 0.63 g/are)	Phytotoxicity, Corn (corn [5]; 1.25 g/are)	Herbicidal activity, Jimsonweed (jimsonweed; 10 g/are)	Herbicidal activity, Jimsonweed (jimsonweed; 20 g/are)	Herbicidal activity, Velvetleaf (velvetleaf [6]; 5 g/are)	Herbicidal activity, Velvetleaf (velvetleaf [6]; 10 g/are)	further results
O=C1C2=C(CCCC2)C(=O)N1c1ccc(Cl)cc1F [A, 2-fluoro-4-chlorophenyltetrahydrophthalimide, reference compound]	1 (90-99)	2 (80-89)	0 (61-100)	1 (41-60)	1 (41-60)	2 (21-40)	0 (100)	1 (90-99)	0 (61-100)	1 (41-60)	2 (21-40)	3 (11-20)	1 (41-60)	3 (11-20)	0 (100)	1 (90-99)	4 (1-10)	5 (0)	3 (11-20)	4 (1-10)	Herbicidal activity, Johnsongrass (Johnsongrass; 2.5 g/are): 1 (41-60); Herbicidal activity, Johnsongrass (Johnsongrass; 10 g/are): 3 (11-20); Herbicidal activity, Velvetleaf (velvetleaf [1]; 2.5 g/are): 4 (1-10); Herbicidal activity, Velvetleaf (velvetleaf [1]; 10 g/are): 5 (0); Herbicidal activity, Morningglory (morningglory; 2.5 g/are): 1 (41-60); Herbicidal activity, Morningglory (morningglory; 10 g/are): 2 (21-40); Herbicidal activity, Wild mustard (wild mustard; 1.25 g/are): 3 (11-20); Herbicidal activity, Wild mustard (wild mustard; 5 g/are): 5 (0); Herbicidal activity, Common purslane (common purslane; 0.63 g/are): 2 (21-40); Herbicidal activity, Common purslane (common purslane; 1.25 g/are): 3 (11-20); Herbicidal activity, Green foxtail (green foxtail [7]; 2.5 g/are): 1 (41-60); Herbicidal activity, Green foxtail (green foxtail [7]; 10 g/are): 4 (1-10); Herbicidal activity, Large crabgrass (large crabgrass; 10 g/are): 5 (0); Herbicidal activity, Large crabgrass (large crabgrass; 20 g/are): 5 (0); Phytotoxicity, Corn (corn [8]; 2.5 g/are): 0 (100); Phytotoxicity, Corn (corn [8]; 10 g/are): 2 (80-89); Herbicidal activity, Green foxtail (green foxtail [9]; 10 g/are): 5 (0); Herbicidal activity, Green foxtail (green foxtail [9]; 20 g/are): 5 (0); Herbicidal activity, Velvetleaf (velvetleaf [10]; 1.25 g/are): 5 (0); Herbicidal activity, Velvetleaf (velvetleaf [10]; 5 g/are): 5 (0)
CC(C)Oc1cc(N2C(=O)C3=C(CCCC3)C2=O)c(Cl)cc1Cl [B, 2,4-dichloro-5-isopropoxyphenyltetrahydrophthalimide, reference compound]	0 (100)	1 (90-99)	0 (61-100)	1 (41-60)	1 (41-60)	3 (11-20)	0 (100)	0 (100)	0 (61-100)	1 (41-60)	1 (41-60)	2 (21-40)	0 (61-100)	2 (21-40)	1 (90-99)	1 (90-99)	4 (1-10)	4 (1-10)	1 (41-60)	3 (11-20)	Herbicidal activity, Johnsongrass (Johnsongrass; 5 g/are): 1 (41-60); Herbicidal activity, Johnsongrass (Johnsongrass; 20 g/are): 2 (21-40); Herbicidal activity, Velvetleaf (velvetleaf [1]; 5 g/are): 1 (41-60); Herbicidal activity, Velvetleaf (velvetleaf [1]; 20 g/are): 3 (11-20); Herbicidal activity, Morningglory (morningglory; 5 g/are): 0 (61-100); Herbicidal activity, Morningglory (morningglory; 20 g/are): 1 (41-60); Herbicidal activity, Wild mustard (wild mustard; 1.25 g/are): 2 (21-40); Herbicidal activity, Wild mustard (wild mustard; 5 g/are): 3 (11-20); Herbicidal activity, Common purslane (common purslane; 0.63 g/are): 3 (11-20); Herbicidal activity, Common purslane (common purslane; 1.25 g/are): 4 (1-10); Herbicidal activity, Green foxtail (green foxtail [7]; 5 g/are): 0 (61-100); Herbicidal activity, Green foxtail (green foxtail [7]; 20 g/are): 0 (61-100); Herbicidal activity, Large crabgrass (large crabgrass; 10 g/are): 3 (11-20); Herbicidal activity, Large crabgrass (large crabgrass; 20 g/are): 4 (1-10); Phytotoxicity, Corn (corn [8]; 5 g/are): 0 (100); Phytotoxicity, Corn (corn [8]; 20 g/are): 1 (90-99); Herbicidal activity, Green foxtail (green foxtail [9]; 10 g/are): 3 (11-20); Herbicidal activity, Green foxtail (green foxtail [9]; 20 g/are): 4 (1-10); Herbicidal activity, Velvetleaf (velvetleaf [10]; 1.25 g/are): 5 (0); Herbicidal activity, Velvetleaf (velvetleaf [10]; 5 g/are): 5 (0)
